Assay results: patent US20250011302A1, “INDOLE BIPYRIMIDINE COMPOUND, AND INTERMEDIATE THEREOF, PREPARATION METHOD THEREFOR AND USE THEREOF” (SHANGHAI ALLIST PHARMACEUTICALS CO., LTD., priority 2021, published 2025)

Test system: Ba/F3 EGFR-Del19/T790M/C797S cells
Test: Proliferation inhibitory activity against Ba/F3 EGFR-Del19/T790M/C797S cells (PrestoBlue method)
Type: cell-based, murine
Details: Mus musculus, Ba/F3 cells stably expressing EGFR Del19/T790M/C797S, 72 hours
Method: The proliferation inhibitory activity of the compounds in vitro against the Ba/F3 EGFR-Del19/T790M/C797S cells from the murine pro B cell line Ba/F3 that stably express EGFR proteins with Del19/T790M/C797S triple mutations, is determined by the PrestoBlue method.
Cell source: Ba/F3 EGFR-Del19/T790M/C797S cells are purchased from Crown Bioscience (Beijing) Co., Ltd.
Ba/F3 EGFR-Del19/T790M/C797S cells are cultured in RPMI1640 complete medium containing 10% fetal calf serum. Take Ba/F3 EGFR-Del19/T790M/C797S cells in the logarithmic growth phase, inoculate them in a 96-well plate at a cell density of 5000 cells/135 μl complete culture medium/well, and place them at a constant temperature incubator containing 5% CO2 at 37° C. for culturing for 24 hours. […]
Take out the 96-well cell culture plate from the CO2 constant temperature incubator, add 15 μl of Invitrogen™ PrestoBlue™ HS cell viability detection reagent (Cat. No.: P50201) to each well, and continue to incubate for 3 hours in the constant temperature incubator containing 5% CO2 at 37° C. Take out the 96-well cell culture plate and measure the fluorescence at the 560 nm excitation wavelength and 590 nm emission wavelength of a microplate reader. […]
Data were analyzed using GraphPad Prism 8.3 software, and nonlinear S-curve regression was used to fit the data to obtain a dose-effect curve, from which the IC50 value was calculated.

Compound	IC50
CN(C)CCN(C)c1nc(OCC(F)(F)F)c(Nc2nccc(-c3cn(C)c4ccccc34)n2)cc1NC(=O)CCN(C)CCN(C)c1nc(OCC(F)(F)F)c(Nc2nccc(-c3cn(C)c4ccccc34)n2)cc1N [Compound 1]	1860 nM
C=CC(=O)Nc1cc(Nc2nccc(-c3cn(C)c4ccccc34)n2)c(OCC(F)(F)F)nc1N(C)CCN(C)CCC(=O)Nc1cc(Nc2nccc(-c3cn(C)c4ccccc34)n2)c(OCC(F)(F)F)nc1N(C)CCN(C)C [Compound 4]	293 nM
